From patent US20220000976A1 (priority 2018, published 2022)
Where a name gives a salt, the structure may show the parent alone.

Legend:
ROR-γt+ Treg cells = settings: mouse, in vivo
Il4ra^F709 mice = experiment: Food allergy model: OVA/SEB oral sensitization and OVA challenge of treated Il4ra^F709 mice (core body temperature); type: in vivo, mouse; settings: 100 mg/kg i.p. once weekly, OVA/SEB 8 weeks

O=Cc1c[nH]c2ccccc12 [CA, indol-3-carboxaldehyde]
ROR-γt+ staining in CD4+Foxp3+ Treg cells vs sham treatment (ROR-γt+ Treg cells): statistically significant increase

O=S(=O)(O)Oc1c[nH]c2ccccc12 [I3S, Indoxyl sulfate]
GATA3+ Helios+ gut Treg cells (ROR-γt+ Treg cells; ip, 100 mg/kg): statistically significant decrease
GATA3+ Helios− gut Treg cells (ROR-γt+ Treg cells; ip, 100 mg/kg): statistically significant decrease
GATA3+ gut Treg cells (ROR-γt+ Treg cells; ip, 100 mg/kg): statistically significant decrease
Gut ROR-γt+ Treg cells (expansion) (ROR-γt+ Treg cells; ip, 100 mg/kg): expanded gut ROR-γt^+ Treg cells
ROR-γt+ Helios+ gut Treg cells (ROR-γt+ Treg cells; ip, 100 mg/kg): statistically significant increase
ROR-γt+ Helios− gut Treg cells (ROR-γt+ Treg cells; ip, 100 mg/kg): statistically significant increase
ROR-γt+ gut Treg cells (ROR-γt+ Treg cells; ip, 100 mg/kg): statistically significant increase
Protection against food allergy (Il4ra^F709 mice; OVA challenge): protected against food allergy
Core body temperature changes compared to control (Il4ra^F709 mice; after OVA challenge): statistically significant increase
